Earlier results as cited in PMC7536072, “Molecular and functional characterization of somatostatin-type signalling in a deuterostome invertebrate” (Open Biology, 2020).
Bridges are numbered along the chain shown (N, C = ends). Where no end group is shown, it is not given here.

Experiments:
insulin release = details: ref [2]; cited from earlier work
Description: (§1) Subsequently, an N-terminally extended isoform (SS28) was identified, with both SS14 and SS28 being derived from the same precursor protein [5]. Five G-protein-coupled receptors, SSTR1, SSTR2, SSTR3, SSTR4 and SSTR5, mediate effect ...

mammals = details: intracerebroventricular, cited from earlier work
Description: as §1

growth hormone release = details: ref [1]; cited from earlier work
Description: as §1

Substance: SS: tetradecapeptide with a disulfide bridge linking cysteine residues at positions 3 and 14 (SS14) (AGCKNFFWKTFTSC; disulfide 3-14; UniProt P61278 103-116, looked up)
- effect on insulin release (insulin release): inhibits insulin release
- effect on food intake and drinking (mammals; ref [12],[13]): stimulation of food intake and drinking
- anxiolytic effect (mammals; ref [14]): anxiolysis
- effect on growth hormone release (growth hormone release): inhibits growth hormone release
